Assay results from PubChem BioAssay AID2060603 (Molecular Pharmacology Branch, DTP, NCI, 2025).

Test system: 422866-222-R5-J1-PDC spheroid viability
Test: Anticancer human tumor 422866-222-R5-J1-PDC patient-derived pancreatic adenocarcinoma cell line growth inhibition [CLK]
Settings: spheroids with HUVEC and MSC; for IC50: curve of first compound; for viability, T/C: stronger effect = lower value
In short: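 Patient-derived tumor cells grown as complex spheroids with HUVEC endothelial cells and mesenchymal stem cells, treated with drug combinations. Concentrations descend in half-log steps from near clinical Cmax, or from 10 microM if Cmax unknown.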
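Also: spheroids exposed to agents for seven days before readout.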

Which IC50 (second compound 0.0316 µM) does the source give for `CC(C)CC(NC(=O)C(Cc1ccccc1)NC(=O)c1cnccn1)B(O)O` (centres undefined) + CNC(=O)c1ccc(Nc2nc(OC3CCCC3)c3c(-c4ccc5nc(C)oc5c4)c[nH]c3n2)c(OC)c1 here?
The IC50 was 5.65 nM.

And the IC50 (second compound 0.1 µM)?
Its IC50 is 5.52 nM.

What about the IC50 (second compound 0.316 µM) of the same molecule?
Its IC50 is 4.54 nM.

What about the IC50 (second compound 1 µM) of the same molecule?
The IC50 was 4.19 nM.

What about the IC50 (second compound 3.16 µM) of the same molecule?
The IC50 was 4.29 nM.

And the IC50 (second compound 10 µM)?
The IC50 was 4.12 nM.

And the viability, T/C (second compound 0.0316 µM, first compound 0.000949 µM)?
The viability, T/C was 94%.

And the viability, T/C (second compound 0.0316 µM, first compound 0.003 µM)?
The viability, T/C was 88.6%.

And the viability, T/C (second compound 0.0316 µM, first compound 0.00949 µM)?
Its viability, T/C is 18.5%.

And the viability, T/C (second compound 0.0316 µM, first compound 0.03 µM)?
The viability, T/C was 2.14%.

And the viability, T/C (second compound 0.0316 µM, first compound 0.0949 µM)?
The viability, T/C was 0.75%.

And the viability, T/C (second compound 0.0316 µM, first compound 0.3 µM)?
The viability, T/C was 0.67%.

What about the viability, T/C (second compound 0.1 µM, first compound 0.000949 µM) of the same molecule?
The viability, T/C was 115%.

What about the viability, T/C (second compound 0.1 µM, first compound 0.003 µM) of the same molecule?
The viability, T/C was 90.8%.

What about the viability, T/C (second compound 0.1 µM, first compound 0.00949 µM) of the same molecule?
Its viability, T/C is 13.8%.

And the viability, T/C (second compound 0.1 µM, first compound 0.03 µM)?
The viability, T/C was 1.87%.

And the viability, T/C (second compound 0.1 µM, first compound 0.0949 µM)?
Its viability, T/C is 1.7%.

And the viability, T/C (second compound 0.1 µM, first compound 0.3 µM)?
Its viability, T/C is 1.33%.

And the viability, T/C (second compound 0.316 µM, first compound 0.000949 µM)?
The viability, T/C was 108%.

What about the viability, T/C (second compound 0.316 µM, first compound 0.003 µM) of the same molecule?
The viability, T/C was 70.2%.

And the viability, T/C (second compound 0.316 µM, first compound 0.00949 µM)?
The viability, T/C was 13.9%.

What about the viability, T/C (second compound 0.316 µM, first compound 0.03 µM) of the same molecule?
Its viability, T/C is 1.54%.

And the viability, T/C (second compound 0.316 µM, first compound 0.0949 µM)?
Its viability, T/C is 0.87%.

What about the viability, T/C (second compound 0.316 µM, first compound 0.3 µM) of the same molecule?
Its viability, T/C is 1.27%.

What about the viability, T/C (second compound 1 µM, first compound 0.000949 µM) of the same molecule?
Its viability, T/C is 96.5%.

What about the viability, T/C (second compound 1 µM, first compound 0.003 µM) of the same molecule?
The viability, T/C was 67.8%.

What about the viability, T/C (second compound 1 µM, first compound 0.00949 µM) of the same molecule?
Its viability, T/C is 6.77%.

And the viability, T/C (second compound 1 µM, first compound 0.03 µM)?
Its viability, T/C is 1.53%.

And the viability, T/C (second compound 1 µM, first compound 0.0949 µM)?
Its viability, T/C is 3.06%.

What about the viability, T/C (second compound 1 µM, first compound 0.3 µM) of the same molecule?
Its viability, T/C is 2.68%.

What about the viability, T/C (second compound 3.16 µM, first compound 0.000949 µM) of the same molecule?
Its viability, T/C is 86.8%.

What about the viability, T/C (second compound 3.16 µM, first compound 0.003 µM) of the same molecule?
Its viability, T/C is 69.7%.

And the viability, T/C (second compound 3.16 µM, first compound 0.00949 µM)?
The viability, T/C was 6.4%.

What about the viability, T/C (second compound 3.16 µM, first compound 0.03 µM) of the same molecule?
Its viability, T/C is 1.59%.

And the viability, T/C (second compound 3.16 µM, first compound 0.0949 µM)?
Its viability, T/C is 1.4%.

And the viability, T/C (second compound 3.16 µM, first compound 0.3 µM)?
The viability, T/C was 0.99%.

What about the viability, T/C (second compound 10 µM, first compound 0.000949 µM) of the same molecule?
The viability, T/C was 84.8%.

What about the viability, T/C (second compound 10 µM, first compound 0.003 µM) of the same molecule?
Its viability, T/C is 66.5%.

And the viability, T/C (second compound 10 µM, first compound 0.00949 µM)?
The viability, T/C was 6.65%.

And the viability, T/C (second compound 10 µM, first compound 0.03 µM)?
Its viability, T/C is 1.39%.

And the viability, T/C (second compound 10 µM, first compound 0.0949 µM)?
The viability, T/C was 1.44%.

And the viability, T/C (second compound 10 µM, first compound 0.3 µM)?
The viability, T/C was 1.32%.

What does the source list for `CC1COCCN1c1cc(C2(S(C)(=N)=O)CC2)nc(-c2ccnc3[nH]ccc23)n1` (centres undefined) + CN1CCN(c2cc(C(=O)Nc3cc4cc(-c5cnn(C)c5)ccc4cn3)ccn2)CC1?
IC50 (second compound 0.0316 µM): > 10000 nM; IC50 (second compound 0.1 µM): > 10000 nM; IC50 (second compound 0.316 µM): > 10000 nM; IC50 (second compound 1 µM): < 31.6 nM; IC50 (second compound 3.16 µM): < 31.6 nM; IC50 (second compound 10 µM): < 31.6 nM; viability, T/C (second compound 0.0316 µM, first compound 0.0316 µM): 112%; viability, T/C (second compound 0.0316 µM, first compound 0.1 µM): 104%; viability, T/C (second compound 0.0316 µM, first compound 0.316 µM): 93.6%; viability, T/C (second compound 0.0316 µM, first compound 1 µM): 89.3%; viability, T/C (second compound 0.0316 µM, first compound 3.16 µM): 56%; viability, T/C (second compound 0.0316 µM, first compound 10 µM): 55.6%; viability, T/C (second compound 0.1 µM, first compound 0.0316 µM): 115%; viability, T/C (second compound 0.1 µM, first compound 0.1 µM): 95.7%; viability, T/C (second compound 0.1 µM, first compound 0.316 µM): 113%; viability, T/C (second compound 0.1 µM, first compound 1 µM): 74.3%; viability, T/C (second compound 0.1 µM, first compound 3.16 µM): 60.2%; viability, T/C (second compound 0.1 µM, first compound 10 µM): 61.2%; viability, T/C (second compound 0.316 µM, first compound 0.0316 µM): 95%; viability, T/C (second compound 0.316 µM, first compound 0.1 µM): 85.8%; viability, T/C (second compound 0.316 µM, first compound 0.316 µM): 79.9%; viability, T/C (second compound 0.316 µM, first compound 1 µM): 73.2%; viability, T/C (second compound 0.316 µM, first compound 3.16 µM): 61.2%; viability, T/C (second compound 0.316 µM, first compound 10 µM): 56.2%; viability, T/C (second compound 1 µM, first compound 0.0316 µM): 30.9%; viability, T/C (second compound 1 µM, first compound 0.1 µM): 26.6%; viability, T/C (second compound 1 µM, first compound 0.316 µM): 27.7%; viability, T/C (second compound 1 µM, first compound 1 µM): 21.6%; viability, T/C (second compound 1 µM, first compound 3.16 µM): 23.8%; viability, T/C (second compound 1 µM, first compound 10 µM): 17.5%; viability, T/C (second compound 3.16 µM, first compound 0.0316 µM): 10.7%; viability, T/C (second compound 3.16 µM, first compound 0.1 µM): 10.4%; viability, T/C (second compound 3.16 µM, first compound 0.316 µM): 11.6%; viability, T/C (second compound 3.16 µM, first compound 1 µM): 10.4%; viability, T/C (second compound 3.16 µM, first compound 3.16 µM): 10.6%; viability, T/C (second compound 3.16 µM, first compound 10 µM): 10.2%; viability, T/C (second compound 10 µM, first compound 0.0316 µM): 2.45%; viability, T/C (second compound 10 µM, first compound 0.1 µM): 2.21%; viability, T/C (second compound 10 µM, first compound 0.316 µM): 1.54%; viability, T/C (second compound 10 µM, first compound 1 µM): 2.27%; viability, T/C (second compound 10 µM, first compound 3.16 µM): 4.47%; viability, T/C (second compound 10 µM, first compound 10 µM): 2.46%
